The results in this text go back to US20140179664A1, “Heterocyclyl Pyrimidine Analogues As JAK Inhibitors” (Cellzome Limited, priority 2011, published 2014).

The target in assay [1] is T1, JAK1 (Homo sapiens, UniProt P23458).
T1 construct: endogenous in cells; host or cells: Molt4 (ATCC CRL-1582) and Ramos (ATCC CRL-1596), mixed lysate 1:2
Description: Kinobeads assay, JAK1. The format is binding. Particulars: mixed Molt4/Ramos lysate, read-out: Inhibition values (IC50) JAK1. On the procedure:
After the incubation time the beads with captured proteins were separated from the lysate. Bound proteins were then eluted and the presence of JAK1, JAK2, JAK3 and TYK2 was detected and quantified using specific antibodies in a dot blot procedure and the Odyssey infrared detection system. Dose response curves for individual kinases were generated and IC50 values calculated.
(§1) 5×DP buffer: 250 mM Tris-HCl pH 7.4, 25% Glycerol, 7.5 mM MgCl2, 750 mM NaCl, 5 mM Na3VO4; filter the 5×DP buffer through a 0.22 μm filter and store in aliquots at −80° C. The 5×DP buffer is diluted with H2O to 1×DP buffer containing 1 mM DTT and 25 mM NaF.
Stock solutions of test compounds were prepared in DMSO. […] Starting with this solution a 1:3 dilution series (9 steps) was prepared. For control experiments (no test compound) a buffer containing 2% DMSO was used.
Cells were homogenized in a Potter S homogenizer in lysis buffer: 50 mM Tris-HCl, 0.8% NP40, 5% glycerol, 150 mM NaCl, 1.5 mM MgCl2, 25 mM NaF, 1 mM sodium vanadate, 1 mM DTT, pH 7.5. […] The material was dounced 10 times using a mechanized POTTER S, transferred to 50 mL falcon tubes, incubated for 30 minutes on ice and spun down for 10 minutes at 20,000 g at 4° C. (10,000 rpm in Sorvall SLA600, precooled). […] (33.500 rpm in Ti50.2, precooled). The supernatant was transferred again to a fresh 50 mL falcon tube, the protein concentration was determined by a Bradford assay (BioRad) and samples containing 50 mg of protein per aliquot were prepared. The samples were immediately used for experiments or frozen in liquid nitrogen and stored frozen at −80° C.
Cell lysate (approximately 50 mg protein per plate) was thawed in a water bath at room temperature and then stored on ice. […] The diluted cell lysate was stored on ice. Mixed Molt4/Ramos lysate was prepared by combining one volume of Molt4 lysate and two volumes of Ramos lysate (ratio 1:2).
Plates were sealed and incubated for 3 hours in a cold room on a plate shaker (Heidolph tiramax 1000) at 750 rpm. Afterwards the plate was washed 3 times with 230 μL washing buffer (1×DP 0.4% NP40). […] The eluate was frozen quickly at −80° C. and stored at −20° C.
Afterwards the membrane was washed twice for 10 minutes with PBS buffer containing 0.2% Tween 20 at room temperature. […] Afterwards the membrane was washed twice for 10 minutes each with 1×PBS buffer containing 0.2% Tween 20 at room temperature. Then the membrane was rinsed once with PBS buffer to remove residual Tween 20. The membrane was kept in PBS buffer at 4° C. and then scanned with the Odyssey instrument. Fluorescence signals were recorded and analysed according to the instructions of the manufacturer.

Assay [2] addresses T2, TYK2 (Homo sapiens, UniProt P29597).
T2 construct: endogenous in cells; host or cells: Molt4 (ATCC CRL-1582) and Ramos (ATCC CRL-1596), mixed lysate 1:2
Description: Kinobeads assay, TYK2. The following applies: mixed Molt4/Ramos lysate, read-out: Inhibition values (IC50) TYK2. The format is binding. On the procedure: The compounds of the present invention as described in the previous examples were tested in a Kinobeads™ assay as described for ZAP-70 (WO-A 2007/137867). Briefly, test compounds (at various concentrations) and the affinity matrix with the immobilized aminopyrido-pyrimidine ligand 24 were added to cell lysate aliquots and allowed to bind to the proteins in the lysate sample. After the incubation time the beads with captured proteins were separated from the lysate. Bound proteins were then eluted and the presence of JAK1, JAK2, JAK3 and TYK2 was detected and quantified using specific antibodies in a dot blot procedure and the Odyssey infrared detection system. Dose response curves for individual kinases were generated and IC50 values calculated. Kinobeads™ assays for ZAP-70 (WO-A 2007/137867) and for kinase selectivity profiling (WO-A 2006/134056) have been previously described.
The affinity matrix was washed two times with 15 mL of lx DP buffer containing 0.2% NP40 (IGEPAL® CA-630, Sigma, #13021) and then resuspended in 1×DP buffer containing 0.2% NP40 (3% beads slurry).
as §1
Stock solutions of test compounds were prepared in DMSO. In a 96 well plate […] solution of diluted test compounds at 5 mM in DMSO were prepared. Starting with this solution a 1:3 dilution series (9 steps) was prepared. For control experiments (no test compound) a buffer containing 2% DMSO was used.
Molt4 cells (ATCC catalogue number CRL-1582) and Ramos cells (ATCC catalogue number CRL-1596) were grown in 1 L Spinner flasks (Integra Biosciences, #182101) in suspension in RPMI 1640 medium (Invitrogen, #21875-034) supplemented with 10% Fetal Bovine Serum (Invitrogen) at a density between 0.15×10^6 and 1.2×10^6 cells/mL. Cells were harvested by centrifugation, washed once with 1×PBS buffer (Invitrogen, #14190-094) and cell pellets were frozen in liquid nitrogen and subsequently stored at −80° C. Cells were homogenized in a Potter S homogenizer in lysis buffer: 50 mM Tris-HCl, 0.8% NP40, 5% glycerol, 150 mM NaCl, 1.5 mM MgCl2, 25 mM NaF, 1 mM sodium vanadate, 1 mM DTT, pH 7.5. One complete EDTA-free tablet (protease inhibitor cocktail, Roche Diagnostics, 1873580) per 25 mL buffer was added. The material was dounced 10 times using a mechanized POTTER S, transferred to 50 mL falcon tubes, incubated for 30 minutes on ice and spun down for 10 minutes at 20,000 g at 4° C. (10,000 rpm in Sorvall SLA600, precooled). The supernatant was transferred to an ultracentrifuge (UZ)-polycarbonate tube (Beckmann, 355654) and spun for 1 hour at 100.000 g at 4° C. (33.500 rpm in Ti50.2, precooled). The supernatant was transferred again to a fresh 50 mL falcon tube, the protein concentration was determined by a Bradford assay (BioRad) and samples containing 50 mg of protein per aliquot were prepared. The samples were immediately used for experiments or frozen in liquid nitrogen and stored frozen at −80° C.
Cell lysate (approximately 50 mg protein per plate) was thawed in a water bath at room temperature and then stored on ice. To the thawed cell lysate 1×DP 0.8% NP40 buffer containing protease inhibitors (1 tablet for 25 mL buffer; EDTA-free protease inhibitor cocktail; Roche Diagnostics 1873580) was added in order to reach a final protein concentration of 10 mg/mL total protein. The diluted cell lysate was stored on ice. Mixed Molt4/Ramos lysate was prepared by combining one volume of Molt4 lysate and two volumes of Ramos lysate (ratio 1:2).
To a 96 well filter plate (Multiscreen HTS, BV Filter Plates, Millipore #MSBVN1250) were added per well: 100 μL affinity matrix (3% beads slurry), […], of compound solution, and 50 μL of diluted lysate. […]

T1 sequence (P23458 whole entry): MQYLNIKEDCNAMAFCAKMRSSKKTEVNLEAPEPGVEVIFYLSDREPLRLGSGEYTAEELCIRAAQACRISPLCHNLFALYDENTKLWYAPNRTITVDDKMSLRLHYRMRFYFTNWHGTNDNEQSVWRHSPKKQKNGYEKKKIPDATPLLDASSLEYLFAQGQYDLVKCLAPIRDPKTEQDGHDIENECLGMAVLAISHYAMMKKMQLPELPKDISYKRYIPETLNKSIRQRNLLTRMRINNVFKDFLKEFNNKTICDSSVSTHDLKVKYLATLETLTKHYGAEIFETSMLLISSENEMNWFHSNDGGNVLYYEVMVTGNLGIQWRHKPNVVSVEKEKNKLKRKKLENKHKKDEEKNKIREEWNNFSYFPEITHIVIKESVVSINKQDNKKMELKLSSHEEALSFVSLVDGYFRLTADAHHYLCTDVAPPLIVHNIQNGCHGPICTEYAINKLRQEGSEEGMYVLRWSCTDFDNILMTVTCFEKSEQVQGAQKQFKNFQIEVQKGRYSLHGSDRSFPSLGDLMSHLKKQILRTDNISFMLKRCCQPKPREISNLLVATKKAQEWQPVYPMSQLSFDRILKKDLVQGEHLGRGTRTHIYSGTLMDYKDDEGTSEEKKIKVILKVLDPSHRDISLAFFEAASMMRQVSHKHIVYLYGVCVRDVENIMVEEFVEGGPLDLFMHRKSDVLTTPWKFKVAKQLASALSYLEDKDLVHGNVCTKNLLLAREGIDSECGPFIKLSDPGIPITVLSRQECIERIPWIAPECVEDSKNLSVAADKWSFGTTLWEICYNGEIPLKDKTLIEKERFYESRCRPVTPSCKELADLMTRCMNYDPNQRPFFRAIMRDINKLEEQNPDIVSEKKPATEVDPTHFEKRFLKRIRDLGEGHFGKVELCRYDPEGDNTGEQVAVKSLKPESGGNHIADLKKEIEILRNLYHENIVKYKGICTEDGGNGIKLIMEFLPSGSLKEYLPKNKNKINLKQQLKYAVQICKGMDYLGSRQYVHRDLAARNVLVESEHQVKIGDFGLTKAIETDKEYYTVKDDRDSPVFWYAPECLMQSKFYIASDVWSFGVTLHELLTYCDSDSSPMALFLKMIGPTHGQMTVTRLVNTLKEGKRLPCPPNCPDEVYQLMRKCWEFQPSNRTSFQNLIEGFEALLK
T2 sequence (P29597 whole entry): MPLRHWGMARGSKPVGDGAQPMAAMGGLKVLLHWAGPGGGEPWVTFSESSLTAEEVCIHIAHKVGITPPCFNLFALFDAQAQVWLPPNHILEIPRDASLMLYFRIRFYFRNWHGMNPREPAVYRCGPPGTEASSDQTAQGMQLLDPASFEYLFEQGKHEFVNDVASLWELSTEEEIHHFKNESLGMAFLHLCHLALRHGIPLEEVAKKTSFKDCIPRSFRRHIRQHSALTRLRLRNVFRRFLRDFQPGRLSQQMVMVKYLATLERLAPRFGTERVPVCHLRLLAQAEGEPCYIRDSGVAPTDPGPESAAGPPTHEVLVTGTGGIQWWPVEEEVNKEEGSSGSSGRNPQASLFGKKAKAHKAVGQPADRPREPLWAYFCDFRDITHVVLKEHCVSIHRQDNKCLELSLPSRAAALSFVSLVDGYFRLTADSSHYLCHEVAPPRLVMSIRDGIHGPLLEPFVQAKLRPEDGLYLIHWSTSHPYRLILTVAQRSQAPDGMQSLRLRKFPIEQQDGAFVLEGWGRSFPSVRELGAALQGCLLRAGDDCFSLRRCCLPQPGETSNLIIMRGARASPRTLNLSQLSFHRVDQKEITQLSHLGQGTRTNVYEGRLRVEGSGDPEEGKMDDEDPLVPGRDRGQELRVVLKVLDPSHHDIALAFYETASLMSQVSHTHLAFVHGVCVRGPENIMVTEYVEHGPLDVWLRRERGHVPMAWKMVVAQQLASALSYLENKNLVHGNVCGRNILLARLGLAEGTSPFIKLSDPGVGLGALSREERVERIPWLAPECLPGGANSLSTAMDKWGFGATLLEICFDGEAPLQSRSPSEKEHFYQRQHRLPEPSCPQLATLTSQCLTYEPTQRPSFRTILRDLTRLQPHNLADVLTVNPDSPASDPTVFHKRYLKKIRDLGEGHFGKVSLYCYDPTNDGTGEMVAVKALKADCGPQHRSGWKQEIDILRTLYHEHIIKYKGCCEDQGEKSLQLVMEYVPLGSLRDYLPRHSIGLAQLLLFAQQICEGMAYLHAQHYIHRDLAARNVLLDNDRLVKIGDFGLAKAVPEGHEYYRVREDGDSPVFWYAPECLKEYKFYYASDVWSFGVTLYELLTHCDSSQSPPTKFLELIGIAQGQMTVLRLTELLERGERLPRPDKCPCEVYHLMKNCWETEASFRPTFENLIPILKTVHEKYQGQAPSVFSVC

For the compound `Cn1cc(Nc2ncc(Cl)c(NC(C)(CO)c3ccccc3)n2)cn1` (stereo not shown) [Compound 7], the IC50 in assay [1] and in assay [2] was 1000 to 10000 nM in each case.
On to `CC[C@@H](Nc1nc(Nc2cnn(C)c2)ncc1Cl)c1ccccc1` [Compound 5], for which the values for the IC50 in assay [1] and in assay [2] were 1000 to 10000 nM and no less than 10000 nM, respectively.
For `COc1ccccc1[C@@H](CO)Nc1nc(Nc2cnn(C(C)C)c2)ncc1Cl` [Compound 105], the IC50 in assay [1] and in assay [2] was 1000 to 10000 nM each time.
Turning to `CCn1cc(Nc2ncc(Cl)c(N[C@H](CO)c3cccnc3)n2)cn1` [Compound 97], the IC50 in assay [1] and in assay [2] was 1000 to 10000 nM each time.
Regarding `OCCn1cc(Nc2ncc(F)c(N[C@H](CO)c3cc(F)ccc3F)n2)cn1` [Compound 147], the IC50 in assay [1] and in assay [2] was 100 to 1000 nM in each case.
For `CCC(Nc1nc(Nc2cnn(C)c2)ncc1Cl)c1ccccc1F` (stereo not shown) [Compound 125], the IC50 in assay [1] and in assay [2] was 1000 to 10000 nM in each case.
Take `CC(C)n1cc(Nc2ncc(Cl)c(N[C@H](CO)c3ccccc3F)n2)cn1` [Compound 110]: the IC50 in assay [1] and in assay [2] was 1000 to 10000 nM each time.
As for `Cn1cc(Nc2ncc(C(F)(F)F)c(NC(C)(CO)c3ccccc3)n2)cn1` (stereo not shown) [Compound 8], the IC50 (as a rule, the concentration at which inhibition is half-maximal) was greater than 10000 nM in assay [1] and no less than 10000 nM in assay [2].
Regarding `Cn1cc(-c2cc(F)cc([C@@H](CO)Nc3nc(Nc4cnn(CCO)c4)ncc3F)c2)cn1` [Compound 153], the IC50 in assay [1] is 1000 to 10000 nM; in assay [2], no less than 10000 nM.
Taken in the same sequence, the figures for `CNC(=O)Cn1cc(Nc2ncc(Cl)c(NC(CO)c3ccccc3C(F)(F)F)n2)cn1` (stereo not shown) [Compound 131] were 1000 to 10000 nM and 100 to 1000 nM.
The matching figures for `O=C(NCC(F)(F)F)C(Nc1nc(Nc2cnn(CCO)c2)ncc1Cl)c1ccccc1F` (stereo not shown) [Compound 128]: 1000 to 10000 nM and 1000 to 10000 nM.
Taken in the same sequence, the figures for `NC(=O)Cn1cc(Nc2ncc(F)c(N[C@H](CO)c3cc(F)cc(F)c3)n2)cn1` [Compound 160] were 100 to 1000 nM and 100 to 1000 nM.
On to `NC(=O)Cn1cc(Nc2ncc(Cl)c(N[C@H](CO)c3cc(F)ccc3F)n2)cn1` [Compound 140], for which the IC50 is less than 100 nM in assay [1] and 100 to 1000 nM in assay [2].
`CCn1cc(Nc2ncc(Cl)c(N[C@H](CO)c3ccccc3F)n2)cn1` [Compound 109]: the IC50 in assay [1] and in assay [2] was 1000 to 10000 nM each time.
With `Cn1cc(-c2cc(F)cc([C@@H](CO)Nc3nc(Nc4cnn(CCO)c4)ncc3Cl)c2)cn1` [Compound 152], the results for the IC50 in assay [1] and in assay [2] were 100 to 1000 nM and 1000 to 10000 nM, respectively.
The matching figures for `NC(=O)Cn1cc(Nc2ncc(Cl)c(N[C@H](CO)c3cc(F)cc(F)c3)n2)cn1` [Compound 144]: less than 100 nM and 100 to 1000 nM.
Taken in the same sequence, the figures for `NCCCn1cc(Nc2ncc(Cl)c(N[C@H](CO)c3ccccc3)n2)cn1` [Compound 113] were 1000 to 10000 nM and 1000 to 10000 nM.
Turning to `Cn1cc(Nc2ncc(Cl)c(NC(CO)c3cccc(N4CCOCC4=O)c3)n2)cn1` (stereo not shown) [Compound 124], the IC50 in assay [1] and in assay [2] was 1000 to 10000 nM each time.
As to `Cc1cnc(Nc2cnn(CC(=O)N(C)C)c2)nc1N[C@H](CO)c1ccccc1` [Compound 134], the IC50 was in the range of 100 to 1000 nM in assay [1] and 1000 to 10000 nM in assay [2].
Taken in the same sequence, the figures for `CNC(=O)Cn1cc(Nc2ncc(Cl)c(NC(CO)c3cc(F)cc(F)c3)n2)cn1` (stereo not shown) [Compound 123] were 100 to 1000 nM and 1000 to 10000 nM.
Regarding `CNC(=O)Cn1cc(Nc2ncc(Cl)c(N[C@H](CO)c3cc(F)ccc3F)n2)cn1` [Compound 141], the IC50 was less than 100 nM in assay [1] and 100 to 1000 nM in assay [2].
The matching figures for `Cn1cc(Nc2ncc(Cl)c(NC(CO)c3cc(F)cc(F)c3)n2)cn1` (stereo not shown) [Compound 121]: 100 to 1000 nM and 1000 to 10000 nM.
The matching figures for `Cn1cc(Nc2ncc(Cl)c(NC(CO)c3cc(F)ccc3F)n2)cn1` (stereo not shown) [Compound 129]: 100 to 1000 nM and 100 to 1000 nM.
`Cn1cc(Nc2ncc(Cl)c(N[C@H](CO)c3cccc(N4CCOCC4=O)c3F)n2)cn1` [Compound 162]: the IC50 in assay [1] was 1000 to 10000 nM; in assay [2] it was no less than 10000 nM.
Taken in the same sequence, the figures for `OCCn1cc(Nc2ncc(F)c(N[C@H](CO)c3ccccc3)n2)cn1` [Compound 10] were 1000 to 10000 nM and 1000 to 10000 nM.
Taken in the same sequence, the figures for `OCCn1cc(Nc2ncc(Cl)c(N[C@H](CO)c3ccccc3)n2)cn1` [Compound 9] were 100 to 1000 nM and 1000 to 10000 nM.
The matching figures for `OC[C@@H](Nc1nc(Nc2cnn(CC(F)F)c2)ncc1Cl)c1ccccc1F` [Compound 165]: 100 to 1000 nM and 1000 to 10000 nM.
For `C[C@@H](CO)NC(=O)Cn1cc(Nc2ncc(Cl)c(N[C@H](CO)c3ccccc3F)n2)cn1` [Compound 116], the IC50 in assay [1] and in assay [2] was 100 to 1000 nM throughout.
For the compound `CNC(=O)Cn1cc(Nc2ncc(F)c(N[C@H](CO)c3cc(F)ccc3F)n2)cn1` [Compound 148], the IC50 in assay [1] and in assay [2] was 100 to 1000 nM throughout.
With `OCCn1cc(Nc2ncc(Cl)c(NC(CO)c3ccccc3Cl)n2)cn1` (stereo not shown) [Compound 120], the IC50 in assay [1] and in assay [2] was 100 to 1000 nM in each case.
For the compound `Cn1cc(Nc2ncc(Cl)c(N[C@H](CO)c3cc(F)ccc3F)n2)cn1` [Compound 139], the IC50 in assay [1] and in assay [2] was 100 to 1000 nM in each case.
As for `NC(=O)Cn1cc(Nc2ncc(Cl)c(NC(CO)c3cc(F)ccc3F)n2)cn1` (stereo not shown) [Compound 132], the IC50 in assay [1] was less than 100 nM; in assay [2], 100 to 1000 nM.
